ChEMBL document CHEMBL3217644, “Repairing faulty genes by aminoglycosides: Identification of new pharmacophore with enhanced suppression of disease-causing nonsense mutations” (Medchemcomm, 2011)
In brackets after ≈: the same amount, converted by molar mass. Structures can show the parent of a compound that is named as a salt. Activity calls are given as the source filed them. The calls are words filed in the database; no cut-off is given here.

Columns and labels:
[1] = (§1) Cytotoxicity against HFF; type: cell-based; conditions: human, HFF cells; read-out: LC50 (the source's name)
[2] = molecular target: T1, 80S Ribosome (Homo sapiens) (UniProt P08865+P42677+P62753+P15880+P23396+P61247+P62701+P22090+P46782+P62081+P62241+P46781+P46783+P62280+P25398+P62277+P62263+P62841+P62244+P62249+P08708+P62269+P39019+P60866+P63220+P62266+P62847+P62851+P62854+P62979+P62857+P62273+P62861+P39023+P36578+P46777+Q02878+P18124+P62424+P62917+P32969+P27635+P62906+P62913+P30050+P26373+P40429+P50914+P61313+P18621+Q07020+Q02543+P84098+P46778+P35268+P62829+P62750+P83731+P61254+P61353+P46776+P46779+P47914+P62888+P62899+P62910+P49207+P42766+P18077+Q9Y3U8+P83881+P61927+P61513+P63173+P62891+P62945+P05388+P05386); assay: Induction of ribosome-mediated readthrough activity in R3X-transfected HEK293 cells assessed as suppression of R3X mutation after 16 hrs by dual luciferase reporter gene assay; type: cell-based
Ribosome [3] = assay: Induction of ribosome-mediated readthrough activity in rabbit reticulocyte lysate assessed as suppression of G542X mutation after 90 mins by dual luciferase reporter gene assay; conditions: Oryctolagus cuniculus
[4] = molecular target: T1, 80S Ribosome (Homo sapiens); assay: Induction of ribosome-mediated readthrough activity in R245X-transfected HEK293 cells assessed as suppression of R245X mutation after 16 hrs by dual luciferase reporter gene assay; type: cell-based
Ribosome [5] = assay: Induction of ribosome-mediated readthrough activity in rabbit reticulocyte lysate assessed as suppression of W1282X mutation after 90 mins by dual luciferase reporter gene assay; conditions: Oryctolagus cuniculus
Ribosome [6] = assay: Inhibition of ribosome-mediated translation in prokaryotic system
Ribosome [7] = assay: Induction of ribosome-mediated readthrough activity in rabbit reticulocyte lysate assessed as suppression of R3381X mutation after 90 mins by dual luciferase reporter gene assay; conditions: Oryctolagus cuniculus
[8] = molecular target: T1, 80S Ribosome (Homo sapiens); assay: Induction of ribosome-mediated readthrough activity in Q70X-transfected HEK293 cells assessed as suppression of Q70X mutation after 16 hrs by dual luciferase reporter gene assay; type: cell-based
Ribosome [9] = assay: Induction of ribosome-mediated readthrough activity in rabbit reticulocyte lysate assessed as suppression of R245X mutation after 90 mins by dual luciferase reporter gene assay; conditions: Oryctolagus cuniculus
Bacillus spizizenii = assay: Antibacterial activity against Bacillus subtilis ATCC 6633 by double microdilution method; type: functional
[10] = molecular target: T1, 80S Ribosome (Homo sapiens); assay: Induction of ribosome-mediated readthrough activity in W1282X-transfected HEK293 cells assessed as suppression of W1282X mutation after 16 hrs by dual luciferase reporter gene assay; type: cell-based
Escherichia coli = assay: Antibacterial activity against Escherichia coli R477/100 by double microdilution method; type: functional
[11] = Cytotoxicity against HEK293 cells; type: cell-based; conditions: human, read-out: LC50 (the source's name)
Ribosome [12] = assay: Induction of ribosome-mediated readthrough activity in rabbit reticulocyte lysate assessed as suppression of R3X mutation after 90 mins by dual luciferase reporter gene assay; conditions: Oryctolagus cuniculus
Ribosome [13] = assay: Induction of ribosome-mediated readthrough activity in rabbit reticulocyte lysate assessed as suppression of Q70X mutation after 90 mins by dual luciferase reporter gene assay; conditions: Oryctolagus cuniculus
HFF = assay: as §1; type: cell-based; conditions: human, hff; read-out: LC50 (the source's name)

In the case of `NCC[C@H](O)C(=O)N[C@@H]1C[C@H](N)[C@@H](O[C@H]2O[C@H](CO)[C@@H](O)[C@H](O)[C@H]2N)[C@H](O[C@@H]2O[C@H](CN)[C@@H](O)[C@H]2O)[C@H]1O`, the CC50 [1] is reported as 7.8 mM, the Activity [2] is reported as “Active” and the Activity (Ribosome [3]) is reported as “Active”. For the same compound, the Activity [4] was “Active”, the Activity (Ribosome [5]) was “Active” and the IC50 (Ribosome [6]) was 160 nM. The Activity (Ribosome [7]) was “Active”, the Activity [8] was “Active” and the Activity (Ribosome [9]) was “Active”. For the same compound, the MIC (Bacillus spizizenii) was 70 µM (≈ 38.9 µg/mL) and the Activity [10] was “Active”.
`NC[C@H]1O[C@@H](O[C@@H]2[C@@H](O)[C@H](N)C[C@H](N)[C@H]2O[C@H]2O[C@H](CO)[C@@H](O)[C@H](O)[C@H]2N)[C@H](O)[C@@H]1O` gave a CC50 [1] of 21.8 mM, an IC50 (Ribosome [6]) of 460 nM and an MIC (Bacillus spizizenii) of 100 µM (≈ 45.4 µg/mL).
In the case of `C[C@H](N)[C@H]1O[C@@H](O[C@@H]2[C@@H](O)[C@H](N)C[C@H](N)[C@H]2O[C@H]2O[C@H](CO)[C@@H](O)[C@H](O)[C@H]2N)[C@H](O)[C@@H]1O`, the MIC (Escherichia coli) is reported as 2660 µM (≈ 1250 µg/mL), the CC50 [1] is reported as 21.8 mM and the Activity (Ribosome [3]) is reported as “Active”. The Activity (Ribosome [5]) was “Active”, the IC50 (Ribosome [6]) was 1960 nM and the Activity (Ribosome [7]) was “Active”. The Activity (Ribosome [9]) was “Active”, the CC50 [11] was 23.5 mM and the MIC (Bacillus spizizenii) was 83 µM (≈ 38.9 µg/mL). For the same compound, the Activity (Ribosome [12]) was “Active” and the Activity (Ribosome [13]) was “Active”.
With “GENTAMICIN SULFATE [listing 1 of 2 here]” the Activity [2] was “Active”, the Activity (Ribosome [3]) was “Active” and the Activity [4] was “Active”. For the same compound, the Activity (Ribosome [5]) was “Active”, the Activity (Ribosome [7]) was “Active” and the Activity [8] was “Active”. The Activity (Ribosome [9]) was “Active”, the MIC (Bacillus spizizenii) was less than 0.75 µM and the Activity (Ribosome [12]) was “Active”. The Activity [10] was “Active” and the Activity (Ribosome [13]) was “Active”.
For `C[C@H](N)[C@H]1O[C@@H](O[C@@H]2[C@@H](O)[C@H](NC(=O)[C@@H](O)CCN)C[C@H](N)[C@H]2O[C@H]2O[C@H](CO)[C@@H](O)[C@H](O)[C@H]2N)[C@H](O)[C@@H]1O`, the MIC (Escherichia coli) was 1070 µM (≈ 608 µg/mL), the CC50 [1] was 8.1 mM and the Activity [2] was “Active”. The Activity (Ribosome [3]) was “Active”, the Activity [4] was “Active” and the Activity (Ribosome [5]) was “Active”. The IC50 (Ribosome [6]) was 2270 nM, the Activity (Ribosome [7]) was “Active” and the Activity [8] was “Active”. The Activity (Ribosome [9]) was “Active”, the CC50 [11] was 10.1 mM and the MIC (Bacillus spizizenii) was 33 µM (≈ 18.8 µg/mL). The Activity [10] was “Active”.
For `NC[C@@H]1O[C@H](O[C@H]2[C@@H](O)[C@H](O[C@@H]3[C@@H](O)[C@H](N)C[C@H](N)[C@H]3O[C@H]3O[C@H](CO)[C@@H](O)[C@H](O)[C@H]3N)O[C@@H]2CO)[C@H](N)[C@@H](O)[C@@H]1O` [PAROMOMYCIN SULFATE], the CC50 [1] was 3.1 mM, the IC50 (Ribosome [6]) was 51 nM and the CC50 [11] was 4.1 mM. The MIC (Bacillus spizizenii) was 1.2 µM.
For `C[C@@H](N)[C@H]1O[C@@H](O[C@@H]2[C@@H](O)[C@H](NC(=O)[C@@H](O)CCN)C[C@H](N)[C@H]2O[C@H]2O[C@H](CO)[C@@H](O)[C@H](O)[C@H]2N)[C@H](O)[C@@H]1O`, the MIC (Escherichia coli) was 1060 µM (≈ 602 µg/mL), the CC50 [1] was 19.3 mM and the Activity [2] was “Active”. The Activity (Ribosome [3]) was “Active”, the Activity [4] was “Active” and the Activity (Ribosome [5]) was “Active”. The IC50 (Ribosome [6]) was 811 nM, the Activity (Ribosome [7]) was “Active” and the Activity [8] was “Active”. For the same compound, the Activity (Ribosome [9]) was “Active”, the CC50 [11] was 13.9 mM and the MIC (Bacillus spizizenii) was 33 µM (≈ 18.8 µg/mL). For the same compound, the Activity [10] was “Active”.
“GENTAMICIN SULFATE [listing 2 of 2 here]” gave a CC50 (HFF) of 3.2 mM and an IC50 (Ribosome [6]) of 28 nM.
In the case of `C[C@@H](N)[C@H]1O[C@@H](O[C@@H]2[C@@H](O)[C@H](N)C[C@H](N)[C@H]2O[C@H]2O[C@H](CO)[C@@H](O)[C@H](O)[C@H]2N)[C@H](O)[C@@H]1O`, the MIC (Escherichia coli) is reported as 4990 µM (≈ 2340 µg/mL), the CC50 [1] is reported as 20.1 mM and the Activity (Ribosome [3]) is reported as “Active”. The Activity (Ribosome [5]) was “Active”, the IC50 (Ribosome [6]) was 2130 nM and the Activity (Ribosome [7]) was “Active”. For the same compound, the Activity (Ribosome [9]) was “Active”, the CC50 [11] was 19.8 mM and the MIC (Bacillus spizizenii) was 78 µM (≈ 36.5 µg/mL). For the same compound, the Activity (Ribosome [12]) was “Active” and the Activity (Ribosome [13]) was “Active”.
